# Experimental data taken from publication PMC12136031 (Science Advances, 2025).
# Like-named read-outs stand apart in the source and are kept apart here.
# Legend:
# [1] = biological target: T1, ADRA1A (Homo sapiens, UniProt P35348); assay: Safety47 Calcium Flux ADRA1A; assay type: cell-based; settings: for Emax: read-out: Max Response; for EC50: read-out: RC50 (EC50); for IC50: read-out: RC50 (IC50)
# T1 construct: purchased Eurofins Panlab Safety47 Safety Scan
# T1 sequence (P35348 1-466): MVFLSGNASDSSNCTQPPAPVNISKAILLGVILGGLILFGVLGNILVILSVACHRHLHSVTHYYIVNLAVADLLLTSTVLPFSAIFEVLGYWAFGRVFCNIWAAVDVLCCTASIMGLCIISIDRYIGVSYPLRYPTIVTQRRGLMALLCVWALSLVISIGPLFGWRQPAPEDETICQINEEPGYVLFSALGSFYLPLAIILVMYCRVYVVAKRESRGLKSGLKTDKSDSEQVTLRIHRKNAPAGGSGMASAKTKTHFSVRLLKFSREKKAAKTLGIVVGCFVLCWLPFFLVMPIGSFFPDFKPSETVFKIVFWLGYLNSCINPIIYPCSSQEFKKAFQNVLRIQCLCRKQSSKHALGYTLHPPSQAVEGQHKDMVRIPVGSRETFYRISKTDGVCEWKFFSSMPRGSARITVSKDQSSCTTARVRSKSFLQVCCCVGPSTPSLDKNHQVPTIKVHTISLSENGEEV
# [2] = biological target: T2, CHRM3 (Homo sapiens, UniProt P20309); assay: Safety47 Calcium Flux CHRM3; assay type: cell-based; settings: for Emax: read-out: Max Response; for EC50: read-out: RC50 (EC50); for IC50: read-out: RC50 (IC50)
# T2 construct: purchased Eurofins Panlab Safety47 Safety Scan
# T2 sequence (P20309 whole entry): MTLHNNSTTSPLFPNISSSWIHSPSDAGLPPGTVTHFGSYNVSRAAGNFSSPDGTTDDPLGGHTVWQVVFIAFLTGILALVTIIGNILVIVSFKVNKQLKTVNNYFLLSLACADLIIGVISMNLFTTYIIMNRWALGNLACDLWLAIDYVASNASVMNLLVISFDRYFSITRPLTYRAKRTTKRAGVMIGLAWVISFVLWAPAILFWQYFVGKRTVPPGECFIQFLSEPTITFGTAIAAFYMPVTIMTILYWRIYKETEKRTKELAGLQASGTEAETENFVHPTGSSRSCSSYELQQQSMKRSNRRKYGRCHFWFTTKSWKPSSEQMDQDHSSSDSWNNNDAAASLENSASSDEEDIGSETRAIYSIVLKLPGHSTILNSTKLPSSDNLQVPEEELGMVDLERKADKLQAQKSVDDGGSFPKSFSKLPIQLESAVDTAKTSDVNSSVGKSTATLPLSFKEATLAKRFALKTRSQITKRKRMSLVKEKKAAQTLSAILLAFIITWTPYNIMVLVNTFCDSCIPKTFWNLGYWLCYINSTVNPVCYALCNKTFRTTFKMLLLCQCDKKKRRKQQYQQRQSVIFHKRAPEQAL
# [3] = biological target: T3, HTR2A (Homo sapiens, UniProt P28223); assay: Safety47 Calcium Flux HTR2A; assay type: cell-based; settings: for Emax: read-out: Max Response; for EC50: read-out: RC50 (EC50); for IC50: read-out: RC50 (IC50)
# T3 construct: purchased Eurofins Panlab Safety47 Safety Scan
# T3 sequence (P28223 whole entry): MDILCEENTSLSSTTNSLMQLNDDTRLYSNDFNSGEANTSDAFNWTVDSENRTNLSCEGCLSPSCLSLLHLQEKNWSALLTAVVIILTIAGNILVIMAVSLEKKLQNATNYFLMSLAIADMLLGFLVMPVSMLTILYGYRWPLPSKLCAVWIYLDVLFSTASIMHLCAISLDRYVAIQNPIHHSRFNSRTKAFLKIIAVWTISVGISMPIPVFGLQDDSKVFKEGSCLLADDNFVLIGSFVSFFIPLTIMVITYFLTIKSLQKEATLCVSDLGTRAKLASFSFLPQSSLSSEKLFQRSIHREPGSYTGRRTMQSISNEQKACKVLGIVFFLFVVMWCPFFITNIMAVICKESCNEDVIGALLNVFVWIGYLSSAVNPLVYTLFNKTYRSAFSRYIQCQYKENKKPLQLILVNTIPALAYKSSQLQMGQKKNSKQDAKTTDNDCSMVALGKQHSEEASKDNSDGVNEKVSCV
# [4] = biological target: T4, HTR2B (Homo sapiens, UniProt P41595); assay: Safety47 Calcium Flux HTR2B; assay type: cell-based; settings: for Emax: read-out: Max Response; for EC50: read-out: RC50 (EC50); for IC50: read-out: RC50 (IC50)
# T4 construct: purchased Eurofins Panlab Safety47 Safety Scan
# T4 sequence (P41595 whole entry): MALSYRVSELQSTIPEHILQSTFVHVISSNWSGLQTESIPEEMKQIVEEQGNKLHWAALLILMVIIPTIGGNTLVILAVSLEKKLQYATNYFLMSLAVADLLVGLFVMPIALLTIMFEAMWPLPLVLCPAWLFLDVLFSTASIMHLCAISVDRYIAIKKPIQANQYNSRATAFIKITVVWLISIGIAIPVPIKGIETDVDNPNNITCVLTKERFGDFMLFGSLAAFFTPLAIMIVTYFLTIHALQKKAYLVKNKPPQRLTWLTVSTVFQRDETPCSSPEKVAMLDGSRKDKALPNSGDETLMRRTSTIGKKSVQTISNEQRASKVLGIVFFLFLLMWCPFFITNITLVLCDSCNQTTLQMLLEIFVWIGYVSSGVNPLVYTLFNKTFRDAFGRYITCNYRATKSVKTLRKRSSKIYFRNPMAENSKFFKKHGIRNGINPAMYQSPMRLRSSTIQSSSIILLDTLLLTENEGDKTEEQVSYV
# [5] = biological target: T5, CHRM2 (Homo sapiens, UniProt P08172); assay: Safety47 cAMP CHRM2; assay type: cell-based; settings: for Emax: read-out: Max Response; for EC50: read-out: RC50 (EC50); for IC50: read-out: RC50 (IC50)
# T5 construct: purchased Eurofins Panlab Safety47 Safety Scan
# T5 sequence (P08172 1-466): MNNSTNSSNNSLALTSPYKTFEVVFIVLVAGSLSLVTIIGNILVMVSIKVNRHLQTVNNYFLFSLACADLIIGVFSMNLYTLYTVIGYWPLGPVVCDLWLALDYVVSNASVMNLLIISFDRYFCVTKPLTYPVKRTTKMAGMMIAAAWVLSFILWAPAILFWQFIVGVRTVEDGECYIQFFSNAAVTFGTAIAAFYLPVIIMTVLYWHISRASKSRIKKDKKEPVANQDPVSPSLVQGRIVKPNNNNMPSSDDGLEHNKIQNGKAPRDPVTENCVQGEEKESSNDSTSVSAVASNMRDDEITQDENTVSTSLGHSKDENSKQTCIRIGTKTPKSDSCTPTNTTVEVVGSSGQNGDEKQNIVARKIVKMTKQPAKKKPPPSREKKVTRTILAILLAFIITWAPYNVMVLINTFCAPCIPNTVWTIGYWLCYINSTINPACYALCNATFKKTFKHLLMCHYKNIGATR
# [6] = biological target: T6, CNR2 (Homo sapiens, UniProt P34972); assay: Safety47 cAMP CNR2; assay type: cell-based; settings: for Emax: read-out: Max Response; for EC50: read-out: RC50 (EC50); for IC50: read-out: RC50 (IC50)
# T6 construct: purchased Eurofins Panlab Safety47 Safety Scan
# T6 sequence (P34972 whole entry): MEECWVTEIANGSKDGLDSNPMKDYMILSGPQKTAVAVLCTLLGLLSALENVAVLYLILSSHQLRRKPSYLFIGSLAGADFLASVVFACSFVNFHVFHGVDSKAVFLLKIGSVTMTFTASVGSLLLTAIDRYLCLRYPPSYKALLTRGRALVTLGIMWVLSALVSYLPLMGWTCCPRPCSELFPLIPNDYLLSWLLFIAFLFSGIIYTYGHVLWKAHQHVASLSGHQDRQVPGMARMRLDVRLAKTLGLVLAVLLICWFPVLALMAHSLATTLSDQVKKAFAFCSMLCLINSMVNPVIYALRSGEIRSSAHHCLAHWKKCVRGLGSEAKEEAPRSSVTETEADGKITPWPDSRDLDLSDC
# [7] = biological target: T7, CAV1.2 (Homo sapiens, UniProt Q13936); assay: Safety47 Ion Channel CAV1.2; assay type: cell-based; settings: Blocker; for Emax: read-out: Max Response; for IC50: read-out: RC50 (IC50)
# T7 construct: purchased Eurofins Panlab (Safety47 Safety Scan, contract panel)
# [8] = biological target: T8, nAChR(a4/b2) (Homo sapiens, UniProt P17787+P43681); assay: Safety47 Ion Channel nAChR(a4/b2); assay type: cell-based; settings: for Emax: read-out: Max Response; for IC50: read-out: RC50 (IC50); for EC50: read-out: RC50 (EC50)
# T8 construct: purchased Eurofins Panlab (Safety47 Safety Scan, contract panel)
# T8 sequence (P43681 29-627 limits assumed): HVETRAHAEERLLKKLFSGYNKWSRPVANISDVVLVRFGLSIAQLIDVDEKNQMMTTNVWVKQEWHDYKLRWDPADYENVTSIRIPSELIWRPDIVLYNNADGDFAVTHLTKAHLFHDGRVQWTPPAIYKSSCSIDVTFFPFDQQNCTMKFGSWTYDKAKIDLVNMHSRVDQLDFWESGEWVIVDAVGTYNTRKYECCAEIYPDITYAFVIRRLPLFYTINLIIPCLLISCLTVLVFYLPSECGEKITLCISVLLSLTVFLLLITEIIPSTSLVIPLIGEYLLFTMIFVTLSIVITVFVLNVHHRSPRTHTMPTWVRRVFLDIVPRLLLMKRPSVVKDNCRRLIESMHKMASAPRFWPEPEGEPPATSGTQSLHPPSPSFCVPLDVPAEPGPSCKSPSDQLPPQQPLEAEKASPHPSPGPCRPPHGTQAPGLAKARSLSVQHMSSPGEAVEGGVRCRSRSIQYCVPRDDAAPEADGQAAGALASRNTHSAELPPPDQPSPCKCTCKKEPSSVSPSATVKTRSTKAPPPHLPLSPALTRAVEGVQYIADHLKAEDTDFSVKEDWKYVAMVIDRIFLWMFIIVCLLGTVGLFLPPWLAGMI
# T8 sequence (P17787 26-502): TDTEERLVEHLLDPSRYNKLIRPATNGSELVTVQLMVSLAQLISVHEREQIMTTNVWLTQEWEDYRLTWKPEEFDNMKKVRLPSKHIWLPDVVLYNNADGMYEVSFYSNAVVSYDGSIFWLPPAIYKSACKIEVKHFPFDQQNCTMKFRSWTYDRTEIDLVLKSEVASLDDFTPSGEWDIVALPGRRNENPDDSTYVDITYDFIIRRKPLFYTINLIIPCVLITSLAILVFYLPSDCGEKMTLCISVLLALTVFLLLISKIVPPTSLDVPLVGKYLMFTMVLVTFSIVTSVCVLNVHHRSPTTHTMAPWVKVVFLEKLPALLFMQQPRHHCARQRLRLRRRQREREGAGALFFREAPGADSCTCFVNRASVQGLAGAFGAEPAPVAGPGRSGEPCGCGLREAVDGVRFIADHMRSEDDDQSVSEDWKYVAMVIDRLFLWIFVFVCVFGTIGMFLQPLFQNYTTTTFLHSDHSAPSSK
# [9] = biological target: T9, NMDAR (1A/2B) (Homo sapiens, UniProt Q05586+Q13224); assay: Safety47 Ion Channel NMDAR (1A/2B); assay type: cell-based; settings: for Emax: read-out: Max Response; for IC50: read-out: RC50 (IC50); for EC50: read-out: RC50 (EC50)
# T9 construct: purchased Eurofins Panlab (Safety47 Safety Scan, contract panel)
# [10] = biological target: T10, ROCK1 (Homo sapiens, UniProt Q13464); assay: Safety47 Kinase Binding ROCK1; settings: Kinases, Inhibitor; for Emax: read-out: Max Response; for IC50: read-out: RC50 (IC50)
# T10 construct: purchased Eurofins Panlab (Safety47 Safety Scan, contract panel)
# T10 sequence (Q13464 whole entry, species assumed): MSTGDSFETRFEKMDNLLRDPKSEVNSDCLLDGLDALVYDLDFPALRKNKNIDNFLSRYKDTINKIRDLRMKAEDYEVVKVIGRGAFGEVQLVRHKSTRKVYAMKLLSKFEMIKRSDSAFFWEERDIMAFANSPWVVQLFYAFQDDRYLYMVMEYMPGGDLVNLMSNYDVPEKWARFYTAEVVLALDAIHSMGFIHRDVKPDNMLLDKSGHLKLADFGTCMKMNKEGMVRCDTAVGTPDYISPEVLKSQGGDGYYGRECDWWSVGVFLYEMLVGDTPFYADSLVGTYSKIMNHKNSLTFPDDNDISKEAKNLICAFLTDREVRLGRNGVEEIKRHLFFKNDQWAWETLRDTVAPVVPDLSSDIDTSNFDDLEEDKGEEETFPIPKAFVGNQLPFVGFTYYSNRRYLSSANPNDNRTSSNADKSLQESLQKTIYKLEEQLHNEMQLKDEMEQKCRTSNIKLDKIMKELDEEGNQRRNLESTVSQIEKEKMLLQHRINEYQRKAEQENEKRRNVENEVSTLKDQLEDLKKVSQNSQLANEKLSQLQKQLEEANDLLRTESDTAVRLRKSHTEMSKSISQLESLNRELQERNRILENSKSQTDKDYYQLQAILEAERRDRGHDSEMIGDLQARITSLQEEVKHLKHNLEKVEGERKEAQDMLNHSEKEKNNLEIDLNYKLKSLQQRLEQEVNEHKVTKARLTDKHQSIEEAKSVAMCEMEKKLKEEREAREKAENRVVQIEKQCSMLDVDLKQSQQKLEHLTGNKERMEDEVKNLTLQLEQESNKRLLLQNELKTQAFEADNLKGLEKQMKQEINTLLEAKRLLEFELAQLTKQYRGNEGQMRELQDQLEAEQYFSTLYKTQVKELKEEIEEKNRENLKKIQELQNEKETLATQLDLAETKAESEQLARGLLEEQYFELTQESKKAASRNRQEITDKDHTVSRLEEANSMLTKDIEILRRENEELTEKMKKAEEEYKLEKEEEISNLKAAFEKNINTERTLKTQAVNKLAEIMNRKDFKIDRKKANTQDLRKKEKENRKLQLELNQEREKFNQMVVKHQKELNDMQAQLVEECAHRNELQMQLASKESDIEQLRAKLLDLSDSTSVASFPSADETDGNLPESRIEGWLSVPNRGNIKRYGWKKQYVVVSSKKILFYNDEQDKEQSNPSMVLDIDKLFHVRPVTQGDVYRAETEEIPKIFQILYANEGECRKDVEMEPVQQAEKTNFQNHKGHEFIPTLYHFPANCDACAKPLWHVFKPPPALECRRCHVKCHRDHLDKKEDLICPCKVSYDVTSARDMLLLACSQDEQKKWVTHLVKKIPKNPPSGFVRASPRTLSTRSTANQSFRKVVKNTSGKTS
# [11] = biological target: T11, GR (Homo sapiens, UniProt P04150); assay: Safety47 NHR Protein Interaction GR; assay type: cell-based; settings: for Emax: read-out: Max Response; for EC50: read-out: RC50 (EC50); for IC50: read-out: RC50 (IC50)
# T11 construct: purchased Eurofins Panlab (Safety47 Safety Scan, contract panel)
# T11 sequence (P04150 1-777): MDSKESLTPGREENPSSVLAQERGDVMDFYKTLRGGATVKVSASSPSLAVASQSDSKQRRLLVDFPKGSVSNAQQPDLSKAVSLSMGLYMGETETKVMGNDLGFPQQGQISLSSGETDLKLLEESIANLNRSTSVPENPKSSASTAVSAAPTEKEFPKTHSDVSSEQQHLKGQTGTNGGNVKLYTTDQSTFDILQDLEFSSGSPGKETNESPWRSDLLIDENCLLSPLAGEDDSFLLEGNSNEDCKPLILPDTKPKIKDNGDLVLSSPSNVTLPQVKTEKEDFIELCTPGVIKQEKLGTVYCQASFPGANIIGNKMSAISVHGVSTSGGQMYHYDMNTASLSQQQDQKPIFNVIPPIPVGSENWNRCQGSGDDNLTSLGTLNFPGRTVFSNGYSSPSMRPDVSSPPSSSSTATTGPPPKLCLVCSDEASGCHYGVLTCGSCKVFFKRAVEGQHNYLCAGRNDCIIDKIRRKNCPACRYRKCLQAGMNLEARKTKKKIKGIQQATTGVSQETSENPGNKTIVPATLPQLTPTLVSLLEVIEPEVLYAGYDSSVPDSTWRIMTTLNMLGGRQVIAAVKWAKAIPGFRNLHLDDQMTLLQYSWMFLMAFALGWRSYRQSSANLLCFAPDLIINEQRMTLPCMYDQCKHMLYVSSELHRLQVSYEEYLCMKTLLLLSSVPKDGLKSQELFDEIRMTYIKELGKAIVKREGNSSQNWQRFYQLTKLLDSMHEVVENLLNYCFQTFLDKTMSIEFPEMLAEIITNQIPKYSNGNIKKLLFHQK
# [12] = biological target: T12, COX1 (Homo sapiens, UniProt P23219); assay: Safety47 Enzymatic COX1; assay type: biochemical; settings: Inhibitor; for Emax: read-out: Max Response; for IC50: read-out: RC50 (IC50)
# T12 construct: purchased Eurofins Panlab (Safety47 Safety Scan, contract panel)
# T12 sequence (P23219 24-599): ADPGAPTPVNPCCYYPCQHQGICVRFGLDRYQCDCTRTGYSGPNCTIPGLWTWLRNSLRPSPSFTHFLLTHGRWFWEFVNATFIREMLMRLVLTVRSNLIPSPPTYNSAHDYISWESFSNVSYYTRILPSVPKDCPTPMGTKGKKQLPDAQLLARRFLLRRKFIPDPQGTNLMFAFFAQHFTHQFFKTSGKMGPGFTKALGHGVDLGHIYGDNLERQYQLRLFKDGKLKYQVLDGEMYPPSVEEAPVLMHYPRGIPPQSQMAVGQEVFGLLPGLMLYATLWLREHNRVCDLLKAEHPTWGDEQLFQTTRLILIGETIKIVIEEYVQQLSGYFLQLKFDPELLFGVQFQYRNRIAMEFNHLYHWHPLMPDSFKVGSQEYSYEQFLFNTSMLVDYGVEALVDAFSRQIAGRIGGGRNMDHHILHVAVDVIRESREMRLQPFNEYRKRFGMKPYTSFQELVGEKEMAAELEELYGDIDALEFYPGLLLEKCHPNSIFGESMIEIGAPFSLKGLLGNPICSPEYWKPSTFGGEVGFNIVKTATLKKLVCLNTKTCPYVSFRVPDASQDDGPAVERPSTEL
smiles,measurement,setting,value
"Cl.Fc1cc(Nc2nc(-c3ccncc3)nc3ncccc23)cc2cc[nH]c12 [BC18813, N-(7-fluoro-1H-indol-5-yl)-2-pyridin-4-ylpyrido[2,3-d]pyrimidin-4-amine hydrochloride]",Emax,[1]; Agonist,5.5%
same,EC50,[1]; Agonist,> 10 µM
same,Emax,[1]; Antagonist,1.12%
same,IC50,[1]; Antagonist,> 10 µM
same,Emax,[2]; Agonist,0.56%
same,EC50,[2]; Agonist,> 10 µM
same,Emax,[2]; Antagonist,16.6%
same,IC50,[2]; Antagonist,> 10 µM
same,Emax,[3]; Agonist,0.95%
same,EC50,[3]; Agonist,> 10 µM
same,Emax,[3]; Antagonist,25.6%
same,IC50,[3]; Antagonist,> 10 µM
same,Emax,[4]; Agonist,2.91%
same,EC50,[4]; Agonist,> 10 µM
same,Emax,[4]; Antagonist,31.3%
same,IC50,[4]; Antagonist,> 10 µM
same,Emax,[5]; Agonist,47.7%
same,EC50,[5]; Agonist,> 10 µM
same,Emax,[5]; Antagonist,12.2%
same,IC50,[5]; Antagonist,> 10 µM
same,Curve Bottom,[6]; Agonist,0
same,Curve Top,[6]; Agonist,100
same,Hill,[6]; Agonist,1.05
same,Emax,[6]; Agonist,63.6%
same,EC50,[6]; Agonist,4.59 µM
same,Emax,[6]; Antagonist,0%
same,IC50,[6]; Antagonist,> 10 µM
same,Emax,[7],0%
same,IC50,[7],> 10 µM
same,Emax,[8]; Blocker,0%
same,IC50,[8]; Blocker,> 10 µM
same,Emax,[8]; Opener,0%
same,EC50,[8]; Opener,> 10 µM
same,Emax,[9]; Blocker,13.8%
same,IC50,[9]; Blocker,> 10 µM
same,Emax,[9]; Opener,0%
same,EC50,[9]; Opener,> 10 µM
same,Emax,[10],22.8%
same,IC50,[10],> 10 µM
same,Emax,[11]; Agonist,4.56%
same,EC50,[11]; Agonist,> 10 µM
same,Emax,[11]; Antagonist,7.56%
same,IC50,[11]; Antagonist,> 10 µM
same,Emax,[12],29.3%
same,IC50,[12],> 10 µM
"Cl.c1ccc2c(Nc3ccc4[nH]ccc4c3)nc(-c3ccncc3)nc2c1 [BC18630, N-1H-indol-5-yl-2-pyridin-4-ylquinazolin-4-amine hydrochloride]",Emax,[1]; Agonist,0%
same,EC50,[1]; Agonist,> 10 µM
same,Emax,[1]; Antagonist,0%
same,IC50,[1]; Antagonist,> 10 µM
same,Emax,[2]; Agonist,0%
same,EC50,[2]; Agonist,> 10 µM
same,Emax,[2]; Antagonist,13.7%
same,IC50,[2]; Antagonist,> 10 µM
same,Emax,[3]; Agonist,4.44%
same,EC50,[3]; Agonist,> 10 µM
same,Emax,[3]; Antagonist,22.5%
same,IC50,[3]; Antagonist,> 10 µM
same,Emax,[4]; Agonist,5.41%
same,EC50,[4]; Agonist,> 10 µM
same,Emax,[4]; Antagonist,9.48%
same,IC50,[4]; Antagonist,> 10 µM
same,Emax,[5]; Agonist,31.6%
same,EC50,[5]; Agonist,> 10 µM
same,Emax,[5]; Antagonist,0.25%
same,IC50,[5]; Antagonist,> 10 µM
same,Emax,[6]; Agonist,27.8%
same,EC50,[6]; Agonist,> 10 µM
same,Emax,[6]; Antagonist,0%
same,IC50,[6]; Antagonist,> 10 µM
same,Emax,[7],0%
same,IC50,[7],> 10 µM
same,Emax,[8]; Blocker,12.4%
same,IC50,[8]; Blocker,> 10 µM
same,Emax,[8]; Opener,0%
same,EC50,[8]; Opener,> 10 µM
same,Emax,[9]; Blocker,0%
same,IC50,[9]; Blocker,> 10 µM
same,Emax,[9]; Opener,0%
same,EC50,[9]; Opener,> 10 µM
same,Emax,[10],20.8%
same,IC50,[10],> 10 µM
same,Emax,[11]; Agonist,0%
same,EC50,[11]; Agonist,> 10 µM
same,Emax,[11]; Antagonist,0%
same,IC50,[11]; Antagonist,> 10 µM
same,Emax,[12],21.8%
same,IC50,[12],> 10 µM
